This is an account of results in patent US9409952B2, “Peptide-compound cyclization method” (Chugai Seiyaku Kabushiki Kaisha, priority 2011, dated 2016).

Series [1] can be described thus: PAMPA (parallel artificial membrane permeability assay). As to conditions: PAMPA. Format: in vitro ADME. The gist of the method: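 Artificial membrane was 10% (w/v) egg lecithin plus 0.5% (w/v) cholesterol in dodecane on a PVDF filter. A 10 mM DMSO stock was added at 0.5% (v/v) to donor buffer (50 mM MOPSO, pH 6.5, 5.0% glycocholic acid). After 18 h at 37 °C, LC/MS or LC/UV gave donor and acceptor levels for Pe.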

A short description of series [2]: Metabolic stability in human hepatic microsome. It is filed as in vitro ADME. As to conditions: microsomes.
[3] abbreviates: membrane permeation rate (Pe), 50 mM MOPSO buffer pH 6.5 with 5.0% glycocholic acid, 37° C., 18 hours, read-out: iPAMPA Pe.
The mark [4] stands for this setting: pH 7.4, human hepatic microsome, NADPH(+), read-out: CL NADPH(+).

Where two headings read alike, the source gives them in different places. Positions of bridges follow the written chain, without caps; N, C: chain ends. Non-standard residues stand in square brackets, D forms with d. Residues, ends and D or L forms follow the SMILES beside them. *: point of attachment. NEtPhe = CCN[C@@H](Cc1ccccc1)C(=O)O; NMeF = CN[C@@H](Cc1ccccc1)C(=O)O; NMeI = CC[C@H](C)[C@H](NC)C(=O)O; NMeL = CN[C@@H](CC(C)C)C(=O)O; Phg = N[C@H](C(=O)O)c1ccccc1; NMeV = CN[C@H](C(=O)O)C(C)C; NMeA = CN[C@@H](C)C(=O)O; Piperidide = C1CCN(*)CC1; Aib = CC(C)(N)C(=O)O; NPrGly = CCCNCC(=O)O; Sar = CNCC(=O)O; tBu = CC(C)(C)*

Take `CCCN1CC(=O)N(C)[C@@H](Cc2ccccc2)C(=O)N(C)[C@@H](Cc2ccccc2)C(=O)N(C)[C@@H](CC(C)C)C(=O)N2CCC[C@H]2C(=O)N(C)[C@@H](CC(C)C)C(=O)N[C@@H](C)C(=O)N(C)[C@@H](C(C)C)C(=O)N[C@H](C(=O)N2CCCCC2)CC(=O)N(C)[C@@H](C)C(=O)N[C@@H]([C@@H](C)O)C1=O` [DP-541] ([NMeA]T[NPrGly][NMeF][NMeF][NMeL]P[NMeL]A[NMeV]D-Piperidide; lactam N-11): the Papp at 18 hours, 50 µM in series [1] (pH 6.5) is 23 ×10⁻⁶ cm/s. Moreover, the microsomal CLint at 1 uM in series [2] (human, pH 7.4, CL NADPH(+)) turned out to be 22 µL/min/mg.
Compound `CCN1C(=O)CN(C)C(=O)[C@H]([C@@H](C)O)NC(=O)[C@H](C)N(C)C(=O)C[C@@H](C(=O)N2CCCCC2)NC(=O)[C@H](C(C)C)N(C)C(=O)[C@H](C)NC(=O)[C@H](CC(C)C)N(C)C(=O)[C@@H]2CCCN2C(=O)[C@H](CC(C)C)N(C)C(=O)[C@H](Cc2ccccc2)N(C)C(=O)[C@@H]1Cc1ccccc1` [DP-542] ([NMeA]T[Sar][NEtPhe][NMeF][NMeL]P[NMeL]A[NMeV]D-Piperidide; lactam N-11) gave a Papp at 18 hours, 50 µM in series [1] (pH 6.5) of 22 ×10⁻⁶ cm/s. The same compound came in with a microsomal CLint at 1 uM in series [2] (human, pH 7.4, CL NADPH(+)) of 21 µL/min/mg.
`CCCN1CC(=O)N(C)[C@@H](CC(C)C)C(=O)N[C@@H]([C@@H](C)O)C(=O)N(C)[C@@H](Cc2ccccc2)C(=O)N(C)[C@@H](CC(C)C)C(=O)N(C)[C@@H]([C@@H](C)CC)C(=O)N(C)[C@@H](C)C(=O)N[C@H](C(=O)N2CCCCC2)CC(=O)N(C)CC(=O)N[C@@H](COC(C)(C)C)C1=O` [DP-543] ([Sar]S(tBu)[NPrGly][NMeL]T[NMeF][NMeL][NMeI][NMeA]D-Piperidide; lactam N-10): the Papp at 18 hours, 50 µM in series [1] (setting [3]) is 28 ×10⁻⁶ cm/s. Besides, the microsomal CLint at 1 uM in series [2] (setting [4]) turned out to be 23 µL/min/mg.
`CCCN1CC(=O)N[C@@H](CC(C)C)C(=O)N[C@@H]([C@@H](C)O)C(=O)N(C)CC(=O)N(C)[C@@H](Cc2ccccc2)C(=O)N[C@@H](C)C(=O)N(C)[C@@H](Cc2ccccc2)C(=O)N(C)[C@@H](CC(C)C)C(=O)N(C)[C@@H]([C@@H](C)CC)C(=O)N(C)[C@@H](CC(C)C)C(=O)N[C@H](C(=O)N2CCCCC2)CC1=O` [DP-544] ([NPrGly]LT[Sar][NMeF]A[NMeF][NMeL][NMeI][NMeL]D-Piperidide; lactam N-11): in series [1] (setting [3]), the Papp at 18 hours, 50 µM was 42 ×10⁻⁶ cm/s. Further, the microsomal CLint at 1 uM in series [2] (setting [4]) amounted to 45 µL/min/mg.
In the same order, the values of `CCCN1CC(=O)N(C)[C@@H](Cc2ccccc2)C(=O)N[C@@H](C)C(=O)N(C)[C@@H](Cc2ccccc2)C(=O)N(C)[C@@H](CC(C)C)C(=O)N(C)[C@@H]([C@@H](C)CC)C(=O)N(C)[C@@H](CC(C)C)C(=O)N[C@H](C(=O)N2CCCCC2)CC(=O)N(C)CC(=O)N[C@@H](CC(C)C)C(=O)N[C@@H]([C@@H](C)O)C1=O` [DP-545] ([Sar]LT[NPrGly][NMeF]A[NMeF][NMeL][NMeI][NMeL]D-Piperidide; lactam N-11) are 40 ×10⁻⁶ cm/s and 36 µL/min/mg.
In the same order, the values of `CC[C@H](C)[C@H]1C(=O)N(C)[C@@H](CC(C)C)C(=O)N[C@H](C(=O)N2CCCCC2)CC(=O)N(C)CC(=O)N[C@@H](CC(C)C)C(=O)N[C@@H]([C@@H](C)O)C(=O)N(C)CC(=O)N(CC)[C@@H](Cc2ccccc2)C(=O)N[C@@H](C)C(=O)N(C)[C@@H](Cc2ccccc2)C(=O)N(C)[C@@H](CC(C)C)C(=O)N1C` [DP-546] ([Sar]LT[Sar][NEtPhe]A[NMeF][NMeL][NMeI][NMeL]D-Piperidide; lactam N-11) are 41 ×10⁻⁶ cm/s and 34 µL/min/mg.
In the same order, the values of `CC(C)C[C@@H]1NC(=O)[C@H](CC(C)C)NC(=O)[C@H](C)N(C)C(=O)C[C@@H](C(=O)N2CCCCC2)NC(=O)[C@H](C(C)C)N(C)C(=O)[C@H](CC(C)C)NC(=O)[C@H](Cc2ccccc2)NC(=O)[C@H]([C@@H](C)O)NC(=O)CN(C)C(=O)[C@H](CC(C)C)NC(=O)C(C)(C)NC1=O` [DP-560] ([NMeA]LL[Aib]L[Sar]TFL[NMeV]D-Piperidide; lactam N-11) are 26 ×10⁻⁶ cm/s and 28 µL/min/mg.
As for `CC(C)C[C@@H]1NC(=O)[C@H](CC(C)C)NC(=O)[C@H](C)N(C)C(=O)C[C@@H](C(=O)N2CCCCC2)NC(=O)[C@H](C(C)C)N(C)C(=O)[C@H](CC(C)C)NC(=O)[C@H](Cc2ccccc2)NC(=O)[C@H]([C@@H](C)O)NC(=O)CN(C)C(=O)[C@H](CC(C)C)NC(=O)[C@H](c2ccccc2)NC1=O` [DP-561] ([NMeA]LL[Phg]L[Sar]TFL[NMeV]D-Piperidide; lactam N-11), in series [1] (setting [3]), the Papp at 18 hours, 50 µM is 24 ×10⁻⁶ cm/s. Also, in series [2] (setting [4]), the microsomal CLint at 1 uM worked out at 48 µL/min/mg.
Regarding `CC(C)C[C@H]1C(=O)NCC(=O)N[C@H](C(=O)N2CCCCC2)CC(=O)N[C@@H](c2ccccc2)C(=O)N[C@@H]([C@@H](C)O)C(=O)N(C)[C@@H](C)C(=O)N(C)[C@@H](Cc2ccccc2)C(=O)N(C)[C@@H](Cc2ccccc2)C(=O)N[C@@H](COC(C)(C)C)C(=O)N1C` [DP-563] ([Phg]T[NMeA][NMeF][NMeF]S(tBu)[NMeL]GD-Piperidide; lactam N-9), the Papp at 18 hours, 50 µM in series [1] (setting [3]) amounted to 35 ×10⁻⁶ cm/s. Moreover, the microsomal CLint at 1 uM in series [2] (setting [4]) came to 111 µL/min/mg.
`CC[C@H](C)[C@H]1C(=O)NCC(=O)N(C)[C@@H](CC(C)C)C(=O)N[C@@H]([C@@H](C)O)C(=O)N2CCC[C@H]2C(=O)NC(C)(C)C(=O)N[C@H](C(=O)N2CCCCC2)CC(=O)N(C)[C@@H](C)C(=O)N[C@@H](Cc2ccccc2)C(=O)N(C)[C@@H](CC(C)C)C(=O)N[C@@H](CC(C)C)C(=O)N1C` [DP-564] ([NMeA]F[NMeL]L[NMeI]G[NMeL]TP[Aib]D-Piperidide; lactam N-11): the Papp at 18 hours, 50 µM in series [1] (setting [3]) amounted to 27 ×10⁻⁶ cm/s. The microsomal CLint at 1 uM in series [2] (setting [4]) came to 80 µL/min/mg.
With `CC(C)C[C@@H]1NC(=O)[C@H](Cc2ccccc2)N(C)C(=O)CN(C)C(=O)[C@H]([C@@H](C)O)NC(=O)[C@H](CC(C)C)N(C)C(=O)[C@H](C)NC(=O)C[C@@H](C(=O)N(C)[C@@H](Cc2ccccc2)C(=O)N(C)[C@@H](C)C(=O)N2CCC[C@H]2C(=O)N(C)[C@@H](Cc2ccccc2)C(=O)N[C@@H](C)C(=O)N2CCCCC2)NC1=O` [DP-565] (A[NMeL]T[Sar][NMeF]LD[NMeF][NMeA]P[NMeF]A-Piperidide; lactam N-7), the Papp at 18 hours, 50 µM in series [1] (setting [3]) is 18 ×10⁻⁶ cm/s. Also, in series [2] (setting [4]), the microsomal CLint at 1 uM amounted to 56 µL/min/mg.
On to `CC(C)C[C@@H]1NC(=O)[C@H](Cc2ccccc2)N(C)C(=O)CN(C)C(=O)[C@H]([C@@H](C)O)NC(=O)[C@H](CC(C)C)N(C)C(=O)[C@H](C)NC(=O)C[C@@H](C(=O)N(C)[C@@H](CC(C)C)C(=O)N[C@H](C(=O)N(C)[C@@H](C)C(=O)N[C@@H](C)C(=O)N2CCCCC2)C(C)C)NC1=O` [DP-566] (A[NMeL]T[Sar][NMeF]LD[NMeL]V[NMeA]A-Piperidide; lactam N-7), for which the Papp at 18 hours, 50 µM in series [1] (setting [3]) is 11 ×10⁻⁶ cm/s. Moreover, the microsomal CLint at 1 uM in series [2] (setting [4]) worked out at 38 µL/min/mg.
For the compound `CC[C@H](C)[C@H](NC(=O)[C@H](Cc1ccccc1)N(C)C(=O)[C@@H]1CC(=O)N[C@@H](C)C(=O)N(C)[C@@H](CC(C)C)C(=O)N[C@@H]([C@@H](C)O)C(=O)N(C)CC(=O)N(C)[C@@H](Cc2ccccc2)C(=O)N[C@@H](CC(C)C)C(=O)N1)C(=O)N1CCCCC1` [DP-567] (A[NMeL]T[Sar][NMeF]LD[NMeF]I-Piperidide; lactam N-7), the Papp at 18 hours, 50 µM in series [1] (setting [3]) amounted to 30 ×10⁻⁶ cm/s. The microsomal CLint at 1 uM in series [2] (setting [4]) came to 224 µL/min/mg.
